Laboratory results from US20250066365A1, “Ribonucleoside Analogues Against -Sars-Cov-2” (priority 2021, published 2025).
In brackets after ≈: the same amount, converted by molar mass.

What was measured:
SARS-CoV-2 nsp14 = SARS-CoV-2 nsp14 (Severe acute respiratory syndrome coronavirus 2, UniProt P0DTD1); settings: cited from earlier work
[1] = system: SARS-CoV-2 USA_WA1/2020 strain; test: microbe, parasite or virus in culture; type: cell-based
in vitro [2] = settings: African green monkey
[3] = system: SARS-CoV-2 USA_WA1/2020 strain; test: Activity against SARS-CoV-2 in Vero E6 cells (cytopathic effect, visual and neutral red); type: cell-based; settings: read-out: EC50 (mM/mL) USA_WA1/2020 strain
in vitro [4] = settings: African green monkey; remark: listed apart in the source
[5] = Severe acute respiratory syndrome coronavirus 2, Vero 76, Neutral red (Cytopathic effect/Toxicity), Vero 76 cells, read-out: EC50 (mg/mL) USA_WA1/2020 strain
[6] = Severe acute respiratory syndrome coronavirus 2, Vero 76, Visual (Cytopathic effect/Toxicity), Vero 76 cells, read-out: EC50 (mg/mL) USA_WA1/2020 strain
[7] = CC50 (mg/mL) Vero 76, Neutral red (Cytopathic effect/Toxicity)
[8] = CC50 (mg/mL) Vero 76, Visual (Cytopathic effect/Toxicity)
[9] = Severe acute respiratory syndrome coronavirus 2, Vero C1008, Neutral red (Cytopathic effect/Toxicity)
[10] = Severe acute respiratory syndrome coronavirus 2, Vero C1008, Visual (Cytopathic effect/Toxicity)
[11] = CC50 (mM/mL) Vero E6, Neutral red (Cytopathic effect/Toxicity)
[12] = CC50 (mM/mL) Vero E6, Visual (Cytopathic effect/Toxicity)

In the case of Nc1ncnc2c1ncn2[C@@H]1O[C@H](CSCCNC(=O)NCCc2ccccc2)[C@@H](O)[C@H]1O [DS0464], the “concentration range of nsp14 inhibition (in words)” value (SARS-CoV-2 nsp14) is listed as “low-micromolar”.

For Nc1ncnn2c([C@@H]3O[C@H](CO)[C@@H](O)[C@H]3O)cc(/C=C/c3ccc(C(F)(F)F)cc3)c12 [Compound 4.2e, 7-((E)-4-(Trifluoromethyl)styryl)-4-aza-7,9-dideazaadenosine], the EC50 [1, 5] was over 0.032 mg/mL, the EC50 [1, 6] was over 0.032 mg/mL and the “activity against SARS-CoV-2 (in words)” value ([1]; Vero 76 cells) was “inactive”. For the same compound, the CC50 (in vitro [2]; [7]) was 32 µg/mL (≈ 73.3 µM) and the CC50 (in vitro [2]; [8]) was 32 µg/mL (≈ 73.3 µM).

With Nc1ncnn2c([C@@H]3O[C@H](CO)[C@@H](O)[C@H]3O)cc(/C=C/c3ccccn3)c12 [Compound 4.2b, 7-((E)-2-(Pyridin-2-yl)vinyl)-4-aza-7,9-dideazaadenosine] the “cytotoxicity (in words)” value (Vero 76 cells) was “potent cytotoxicity”, the EC50 [1, 5] was under 0.0001 mg/mL and the EC50 [1, 6] was over 0.00032 mg/mL. For the same compound, the CC50 (in vitro [2]; [7]) was 0.32 µg/mL (≈ 0.866 µM) and the CC50 (in vitro [2]; [8]) was 0.32 µg/mL (≈ 0.866 µM).

In the case of Cc1ccc(/C=C/c2cc([C@@H]3O[C@H](CO)[C@@H](O)[C@H]3O)n3ncnc(N)c23)cc1 [Compound 4.2c, 7-((E)-4-Methylstyryl)-4-aza-7,9-dideazaadnosine], the “EC50 against SARS-CoV-2” value [1] is reported as 0.3 µg/mL (≈ 0.784 µM) and the “activity against SARS-CoV-2 (in words)” value ([1]; Vero 76 cells) is reported as “potent antiviral activity”.

Nc1ncnn2c([C@@H]3O[C@H](CO)[C@@H](O)[C@H]3O)cc(/C=C/c3cccs3)c12 [Compound 4.2j, 7-((E)-2-(Thiophen-2-yl)vinyl)-4-aza-7,9-dideazaadenosine] gave an EC50 [3, 9] of over 0.032 mM, an EC50 [3, 10] of over 0.028 mM and a CC50 (in vitro [4]; [11]) of 0.032 mM. For the same compound, the CC50 (in vitro [4]; [12]) was 0.028 mM.

With Nc1ncnn2c([C@@H]3O[C@H](CO)[C@@H](O)[C@H]3O)cc(/C=C/c3ccsc3)c12 [Compound 4.2k, 7-((E)-2-(Thiophen-3-yl)vinyl)-4-aza-7,9-dideazaadenosine] the EC50 [3, 9] was over 0.0031 mM, the EC50 [3, 10] was over 0.0032 mM and the CC50 (in vitro [4]; [11]) was 0.0031 mM. It also gave a CC50 (in vitro [4]; [12]) of 0.0032 mM.

For Nc1ncnn2c([C@@H]3O[C@H](CO)[C@@H](O)[C@H]3O)cc(/C=C/C3CCCCC3)c12 [Compound 4.2l, 7-((E)-2-Cyclohexylvinyl)-4-aza-7,9-dideazaadenosine], the EC50 [3, 9] was over 0.1 mM, the EC50 [3, 10] was over 0.1 mM and the CC50 (in vitro [4]; [11]) was over 0.1 mM. The CC50 (in vitro [4]; [12]) was over 0.1 mM.

With Nc1ncnn2c([C@@H]3O[C@H](CO)[C@@H](O)[C@H]3O)cc(/C=C/C3CC3)c12 [Compound 4.2h, 7-((E)-2-Cyclopropylvinyl)-4-aza-7,9-dideazaadenosine] the EC50 [3, 9] was over 0.1 mM, the EC50 [3, 10] was over 0.1 mM and the CC50 (in vitro [4]; [11]) was over 0.1 mM. It also gave a CC50 (in vitro [4]; [12]) of over 0.1 mM.

With Nc1ncnn2c([C@@H]3O[C@H](CO)[C@@H](O)[C@H]3O)cc(/C=C/C3CCCC3)c12 [Compound 4.2i, 7-((E)-2-Cyclopentylvinyl)-4-aza-7,9-dideazaadenosine] the EC50 [3, 9] was over 0.1 mM, the EC50 [3, 10] was over 0.1 mM and the CC50 (in vitro [4]; [11]) was over 0.1 mM. The CC50 (in vitro [4]; [12]) was over 0.1 mM.

With Nc1ncnn2c([C@@H]3O[C@H](CO)[C@@H](O)[C@H]3O)cc(/C=C/c3cccc(F)c3)c12 [Compound 4.2g, 7-((E)-3-Fluorostyryl)-4-aza-7,9-dideazaadenosine] the EC50 [3, 9] was over 0.032 mM, the EC50 [3, 10] was over 0.032 mM and the CC50 (in vitro [4]; [11]) was 0.032 mM. For the same compound, the CC50 (in vitro [4]; [12]) was 0.032 mM.

Compound Nc1ncnn2c([C@@H]3O[C@H](CO)[C@@H](O)[C@H]3O)cc(/C=C/c3ccc(F)cc3)c12 [Compound 4.2d, 7-((E)-4-Fluorostyryl)-4-aza-7,9-dideazaadenosine] has an EC50 [1, 5] of over 0.0058 mg/mL, an EC50 [1, 6] of over 0.0032 mg/mL and a CC50 (in vitro [2]; [7]) of 5.8 µg/mL (≈ 15 µM). For the same compound, the CC50 (in vitro [2]; [8]) was 3.2 µg/mL (≈ 8.28 µM).

In the case of C=Cc1cc([C@@H]2O[C@H](CO)[C@@H](O)[C@H]2O)n2ncnc(N)c12 [Compound 4.2a, 7-Vinyl-4-aza-7,9-dideazaadenosine], the “cytotoxicity (in words)” value (Vero 76 cells) is reported as “significant cytotoxicity”, the EC50 [1, 5] is reported as 0.00016 mg/mL (≈ 0.547 µM) and the EC50 ([1]; Severe acute respiratory syndrome coronavirus 2, Vero 76, Vero 76 cells, read-out: EC50 against SARS-CoV-2) is reported as 0.00016 mg/mL (≈ 0.547 µM). The EC50 [1, 6] was under 0.0001 mg/mL, the “activity against SARS-CoV-2 (in words)” value ([1]; Vero 76 cells) was “active” and the CC50 (in vitro [2]; [7]) was 4.7 µg/mL (≈ 16.1 µM). The CC50 (in vitro [2]; [8]) was 3.2 µg/mL (≈ 10.9 µM).

CCC/C=C/c1cc([C@@H]2O[C@H](CO)[C@@H](O)[C@H]2O)n2ncnc(N)c12 [Compound 4.2m, 7-((E)-pent-1-en-1-yl)-4-aza-7,9-dideazaadenosine] gave an EC50 [3, 9] of over 0.1 mM, an EC50 [3, 10] of over 0.1 mM and a CC50 (in vitro [4]; [11]) of over 0.1 mM. It also gave a CC50 (in vitro [4]; [12]) of over 0.1 mM.

Work on Nc1ncnn2c([C@@H]3O[C@H](CO)[C@@H](O)[C@H]3O)cc(/C=C/c3ccc(Cl)cc3)c12 [Compound 4.2f, 7-((E)-4-Chlorostyryl)-4-aza-7,9-dideazaadenosine] yielded an EC50 [3, 9] of over 0.032 mM, an EC50 [3, 10] of over 0.032 mM and a CC50 (in vitro [4]; [11]) of 0.032 mM. The CC50 (in vitro [4]; [12]) was 0.032 mM.

For N#Cc1cn([C@@H]2O[C@H](CSCC[C@H](N)C(=O)O)C(O)[C@@H]2O)c2ncnc(N)c12 (stereo partly drawn) [SS148], the “concentration range of nsp14 inhibition (in words)” value (SARS-CoV-2 nsp14) is given as “submicromolar to nanomolar”.
